According to patent publication US20160058705A1 (priority 2014, published 2016):
“Also recorded” adds a separate entry of the source.

Tests used:
[1] = system: TAC-induced cardiac hypertrophy; experiment: Echocardiography in mouse model of TAC (pressure overload-induced cardiac hypertrophy); type: in vivo; conditions: TAC mice, 300 μg/kg IP at days 1 and 7; compared with TAC controls
From the text: (§1) All procedures involving animal use, housing, and surgeries were approved by the Stanford Institutional Animal Care and Use Committee (IACUC). Animal care and interventions were provided in accordance with the Laboratory Animal Welfare Act.
(§2) For constriction of transverse thoracic aorta (DeAlmeida et al. (2010) J. Vis. Exp. April 21(38) pii:172), mice were anesthetized using an isoflurane inhalational chamber, followed by endotracheal intubation using a 22-gauge angiocatheter (Becton, Dickinson Inc., Sandy, Utah) connected to a small animal ventilator (Harvard Apparatus, Holliston, Mass.). A left thoracotomy was performed via the fourth intercostal space, the transverse aorta was identified, and a 6.0 silk suture was placed between the innominate and left carotid arteries. The suture was tightened around a 271/2 gauge blunt needle, placed parallel to the aorta (FIG. 1B) to induce a constriction of ˜0.4 mm in diameter. In sham control mice, an identical procedure was conducted, except for the constriction of the aorta.
In vivo heart function was evaluated by echocardiography at 1 day prior to surgery (baseline) and on days 1, 7, and 14 post-surgery (FIG. 1A). […] Fractional shortening (FS), LV internal diameter at end diastole (LVIDd) and systole (LVIDs), and posterior LV wall thickness at end diastole (LVPWd) were measured. […]

[2] = system: TAC-induced cardiac hypertrophy; experiment: Histology (Masson's trichrome) of heart sections two weeks post injury; type: in vivo, mouse; conditions: TAC mice
From the text: as §1, §2
Histological analysis was performed following standard protocols for paraffin embedding. Mounted heart samples were stained for Masson's trichrome (TC, to label muscle fibers in red, collagen in blue, cytoplasm in pink, and nuclei in dark brown). A minimum of 4 sections per sample were used.

“pyroglutamyl apelin-13 [[Pyr1]-apelin-13]” was tested, and the “hypertrophic response / cardiac remodeling and dysfunction due to pressure overload” value [1] was “more modest effect; also recorded: slight inhibition of cardiac remodeling and increase in FS” and the “size of LV and extent of cardiac fibrosis (trichrome histology)” value [2] was “remarkable inhibition of the LV growth”.
